Consider seven compounds from patent EP4467141A1, “PYRAZOLO-QUINOLINES AS SELECTIVE INHIBITORS OF GENOTOXIC STRESS-INDUCED IKK/NF- KB PATHWAYS FOR CANCER THERAPY” (Max-Delbrück-Centrum für Molekulare Medizin in der …, priority 2023, dated 2024).

Like-named read-outs stand apart in the source and are kept apart here.

In this test the target is T1, PIK3C2G (PI3K-C2 gamma) (Homo sapiens, UniProt O75747).
T1 construct: purchased Thermo Fisher Scientific
T1 sequence (O75747 1-1486): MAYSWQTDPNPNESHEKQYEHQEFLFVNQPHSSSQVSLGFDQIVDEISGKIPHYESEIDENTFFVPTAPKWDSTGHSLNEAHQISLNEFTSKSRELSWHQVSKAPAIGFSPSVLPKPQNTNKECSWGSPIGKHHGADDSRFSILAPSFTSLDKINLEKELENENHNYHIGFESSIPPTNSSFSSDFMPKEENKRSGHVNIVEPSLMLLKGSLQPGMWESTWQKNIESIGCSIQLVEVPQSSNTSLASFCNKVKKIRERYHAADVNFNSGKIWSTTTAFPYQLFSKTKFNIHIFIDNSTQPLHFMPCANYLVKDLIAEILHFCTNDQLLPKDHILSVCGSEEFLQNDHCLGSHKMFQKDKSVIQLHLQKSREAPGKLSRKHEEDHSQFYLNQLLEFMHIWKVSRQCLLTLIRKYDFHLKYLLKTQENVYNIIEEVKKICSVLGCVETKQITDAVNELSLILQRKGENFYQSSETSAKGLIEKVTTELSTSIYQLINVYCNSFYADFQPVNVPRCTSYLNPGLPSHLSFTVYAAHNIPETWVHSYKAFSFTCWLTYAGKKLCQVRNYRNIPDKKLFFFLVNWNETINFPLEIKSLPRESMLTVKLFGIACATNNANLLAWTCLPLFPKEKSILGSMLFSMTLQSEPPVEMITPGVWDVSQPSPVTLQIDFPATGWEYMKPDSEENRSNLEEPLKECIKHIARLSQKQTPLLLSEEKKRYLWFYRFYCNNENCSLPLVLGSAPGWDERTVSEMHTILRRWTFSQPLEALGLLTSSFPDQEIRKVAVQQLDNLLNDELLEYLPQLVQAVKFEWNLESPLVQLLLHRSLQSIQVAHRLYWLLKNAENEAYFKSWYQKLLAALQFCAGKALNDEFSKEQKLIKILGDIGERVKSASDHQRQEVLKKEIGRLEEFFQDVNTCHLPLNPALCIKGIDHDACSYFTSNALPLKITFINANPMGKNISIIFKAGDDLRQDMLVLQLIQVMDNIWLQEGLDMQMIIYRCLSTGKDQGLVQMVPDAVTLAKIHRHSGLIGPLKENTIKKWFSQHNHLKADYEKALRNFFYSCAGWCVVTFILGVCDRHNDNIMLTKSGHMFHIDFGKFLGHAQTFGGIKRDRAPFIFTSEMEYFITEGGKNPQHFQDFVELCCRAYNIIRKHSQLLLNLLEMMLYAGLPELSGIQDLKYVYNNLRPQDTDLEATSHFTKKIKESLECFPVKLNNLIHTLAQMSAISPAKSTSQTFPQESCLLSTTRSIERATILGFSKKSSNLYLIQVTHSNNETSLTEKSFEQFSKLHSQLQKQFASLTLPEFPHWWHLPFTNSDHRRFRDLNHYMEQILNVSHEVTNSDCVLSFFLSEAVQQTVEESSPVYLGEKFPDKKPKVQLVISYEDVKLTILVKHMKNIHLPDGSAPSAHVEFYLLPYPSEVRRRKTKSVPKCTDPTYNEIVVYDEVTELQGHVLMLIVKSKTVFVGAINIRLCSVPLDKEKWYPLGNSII
The test is described as follows: Kinase panel study. The format is biochemical. The note with it: for inhibition at 1 µM: 1000nM; for IC50: in vitro kinase panel, criterion of at most 2000 nM. A digest of the protocol: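 Compounds were tested in vitro against the kinase panel by a service lab. Assays followed standard ZLyte or Adapta protocols. Activity was recorded as % inhibition at 10 µM or 1 µM, with IC50 values where determined.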

The mark [1] stands for this setting: read-out: Percentage of inhibition.
[2] abbreviates: 10000nM, read-out: Percentage of inhibition.
Setting [3] is: PIK3C2G (PI3K-C2 gamma), compound at 10µM, read-out: % of Inhibition.

For the compound `COc1ccc2c(c1OC)c(=O)n1c3ccc(O)cc3c3ccnc2c31` [MW01, 5-Hydroxy-10,11-dimethoxy-9H-benzo[c]indolo[3,2,1-ij][1,5]naphthyridin-9-one], the IC50 was no more than 2 µM. In addition, under setting [1], the inhibition at 1 µM turned out to be 92%. Moreover, the inhibition at 10 µM under setting [2] came out at 94%.

With `COc1ccc2c(c1)c1ccnc3c4nc(OC)ccc4c(=O)n2c13` [MW01-E6, 5,15-dimethoxy-1,11,14-triazapentacyclo[10.7.1,0^2,7.0^8,^20.0^13,^18]icosa-2(7),3,5,8(20),9,11,13(18),14,16-nonaen-19-one], under setting [3], the inhibition at 10 µM stood at 35%.

On to `O=c1c2cc(O)ccc2c2nccc3c4cc(O)ccc4n1c32` [MW01-E10, 5,16-dihydroxy-1,11-diazapentacyclo[10.7.1.0^2,^7.0^8,^20.0^13,^18]icosa-2(7),3,5,8(20),9,11,13(18),14,16-nonaen-19-one], for which, under setting [3], the inhibition at 10 µM stood at 81%.

In the case of `COc1ccc2c(c1)c1ccnc3c4ccnc(OC)c4c(=O)n2c13` [MW01-E14, 5,17-dimethoxy-1,11,16-triazapentacyclo[10.7.1.0^2,^7.0^8,^20.0^13,^18]icosa-2(7),3,5,8(20),9,11,13(18),14,16-nonaen-19-one], the inhibition at 10 µM under setting [3] came out at 50%.

Turning to `O=c1c2cnccc2c2nccc3c4cc(O)ccc4n1c32` [MW01-E18, 5-hydroxy-1,11,16-triazapentacyclo[10.7.1.0^2,^7.0^8,^20.0^13,^18]icosa-2(7),3,5,8(20),9,11,13(18),14,16-nonaen-19-one], the inhibition at 10 µM under setting [3] is 81%.

`COc1ccc2cc3c(N)nn(C(=O)c4cccc(N(C)C)c4)c3nc2c1` [MW05, (3-Amino-7-methoxypyrazolo[3,4-b]quinolin-1-yl)-[3-(dimethylamino)phenyl]methanone] displayed an IC50 of no more than 2 µM. For the same compound, the inhibition at 1 µM under setting [1] came out at 56%. The inhibition at 10 µM under setting [2] was 87%.

For the compound `COc1ccc2nc3c(cc2c1)c(N)nn3C(=O)c1cccc(N(C)C)c1` [MW05-E2, 1-[3-(dimethylamino)benzoyl]-6-methoxy-1H-pyrazolo[3,4-b]quinolin-3-amine], under setting [3], the inhibition at 10 µM turned out to be 27%.

A word on the inhibition: it is the percentage by which the read-out fell short of the control. The IC50 is the midpoint of a concentration-inhibition curve. A high value points to lower potency.
